Holding throughout (format): cell-based
Test [1] deals with A549 (lung cancer). Briefly: Antitumor activity: growth inhibition of A549. The settings on record: Homo sapiens, 120 h; A549, culturing for 5 days; read-out: 50% growth inhibitory concentration. On the procedure:
(§1) As antitumor activity, 50% growth inhibitory concentration of various cancer cells (CEM-C1 (blood cancer (leukemia)), SU-DHL-4 (blood cancer (lymphoma)), A549 (lung cancer), HCT-116 (colorectal cancer), and Daoy (brain tumor)) was calculated as follows. First, each of the above cancer cells was seeded on a 384-well plate and cultured overnight at 37° C. under 5% CO2. After that, the test compound was added at various concentrations on the next day, and each number of cells was measured after culturing for 5 days. The 50% growth inhibitory concentration was defined as the test compound concentration at which the number of cells measured is an intermediate value between the number of cells after culture for 5 days under the same conditions without the addition of the test compound and the number of cells at the time of seeding (before the start of culture). The measurement results obtained by measuring the 50% growth inhibitory concentration of the test compound by the above method were evaluated in accordance with the following evaluated basis; A: less than 10 μM, B: 10 μM or more and less than 50 μM, and C: 50 μM or more. As a result of using apremilast as the test compound, the evaluation was C in all cancer cells. On the other hand, as a result of using the compound obtained in Example 248 as the test compound, the evaluation was A in all cancer cells.

In test [2] the test system is IL-13. As to the kind of experiment: Cytokine suppression using human peripheral blood mononuclear cells: IL-13. To be noted: human PBMC, CD3 antibody and CD28 antibody; read-out: IL-13 Inhibitory Activity, Human PBMC (Test Example 4). On the procedure: (§2) First, peripheral blood mononuclear cells (PBMC) were separated from whole blood by specific gravity centrifugation. Then, the isolated peripheral blood mononuclear cells were added to RPMI-1640 medium (containing 10% fetal bovine serum, penicillin, streptomycin, L-glutamine, and 2-mercaptoethanol), and cultured in a 96-well plate at 37° C. under 5% CO2 for 0 to 1 hour. The test compound dissolved in dimethyl sulfoxide was added to each well, followed by further culture at 37° C. under 5% CO2 for 1 hour. A medium containing only dimethyl sulfoxide instead of the test compound was added to the control well. […]
(§3) The measurement results obtained by measuring the TNFα inhibitory activity and IL-5 inhibitory activity (50% inhibitory concentration) of the test compounds by the above method were evaluated in accordance with the following evaluated basis; A: less than 10 nM, B: 10 nM or more and less than 100 nM, and C: 100 nM or more. In addition, the measurement results obtained by measuring the IL-17A inhibitory activity, IL-23 inhibitory activity, IL-4 inhibitory activity, and IL-13 inhibitory activity (50% inhibitory concentration) of the test compounds were evaluated in accordance with the following evaluated basis; A: less than 500 nM, B: 500 nM or more and less than 5000 nM, and C: 5000 nM or more.

Test [3] has as its system IL-5. As to the kind of experiment: Cytokine suppression using human peripheral blood mononuclear cells: IL-5. To be noted: human PBMC, CD3 antibody and CD28 antibody; read-out: IL-5 Inhibitory Activity, Human PBMC (Test Example 4). The procedure:
as §2, §3

In test [4] the test system is TNFα. As to the kind of experiment: Cytokine suppression using human T cells: TNFα. The settings on record: T-cell; human CD3-positive T cells, CD3 antibody, about 18 hours; read-out: TNFα Inhibitory Activity, Human T-Cell (Test Example 5). On the procedure:
(§4) First, CD3-positive T cells were separated from whole blood by a magnetic bead method using an EasySep cell separation kit. Separated T cells suspended in RPMI-1640 medium were seeded on a 96-well plate previously coated with CD3 antibody (final concentration 3 μg/mL). Further, CD28 antibody (final concentration 5 ng/mL) was added as an IL-5 production stimulus and an IL-13 production stimulus. A test compound dissolved in dimethyl sulfoxide was added to each well, followed by culture at 37° C. under 5% CO2. The culture was carried out for about 18 hours for the evaluation of the amount of TNFα, and for about 48 hours for the evaluation of the amounts of IL-17A, IL-5, and IL-13. […]
as §3, with “TNFα” for “TNFα inhibitory activity and IL-5”, “IL-5” for “IL-23 inhibitory activity, IL-4”

Test [5] deals with IL-4. Briefly: Cytokine suppression using human peripheral blood mononuclear cells: IL-4. The settings on record: human PBMC, CD3 antibody and CD28 antibody; read-out: IL-4 Inhibitory Activity, Human PBMC (Test Example 4). On the procedure:
as §2, §3

Test [6] relates to IL-23. Briefly: Cytokine suppression using human peripheral blood mononuclear cells: IL-23. The settings on record: human PBMC, lipopolysaccharide 1 ng/mL; read-out: IL-23 Inhibitory Activity, Human PBMC (Test Example 4). The procedure:
as §2, §3

Test [7] has as its system CEM-C1 (blood cancer (leukemia)). Briefly: Antitumor activity: growth inhibition of CEM-C1. To be noted: 120 h; CEM-C1, culturing for 5 days; read-out: 50% growth inhibitory concentration. The procedure: as §1
The test system of test [8] is IL-17A. Briefly: Cytokine suppression using human peripheral blood mononuclear cells: IL-17A. The settings on record: human PBMC, concanavalin A 20 μg/mL; read-out: IL-17A Inhibitory Activity, Human PBMC (Test Example 4). On the procedure: as §2, §3
The test system of test [9] is IL-13. Briefly: Cytokine suppression using human T cells: IL-13. The settings on record: T-cell; human CD3-positive T cells, CD3 and CD28 antibody, about 48 hours; read-out: IL-13 Inhibitory Activity, Human T-Cell (Test Example 5). On the procedure:
as §4
as §3, with “TNFα” for “TNFα inhibitory activity and IL-5”, “IL-5” for “IL-23 inhibitory activity, IL-4”

The structures appear in SMILES notation.

For `CC(C)(O)C(F)(F)Oc1ccc(-c2nccs2)c2oc(N3CC4CC(C3)N4)nc12` [Example 248, 1-((2-(3,6-Diazabicyclo[3.1.1]heptan-3-yl)-7-(thiazol-2-yl)benzo[d]oxazol-4-yl)oxy)-1,1-difluoro-2-methylpropan-2-ol], the IC50 in test [1] is under 10000 nM; in [2], under 500 nM; in test [3], under 10 nM; in test [4], under 10 nM; in test [5], under 500 nM; in test [6] it was under 500 nM. The IC50 in test [7] is under 10000 nM; in test [8], under 500 nM; in [9], under 500 nM.
With `CCOc1cc([C@@H](CS(C)(=O)=O)N2C(=O)c3cccc(NC(C)=O)c3C2=O)ccc1OC` [apremilast, reference compound], the IC50 in test [1] was at least 50000 nM; in [2], at least 5000 nM; in [3] it was over 100 nM; in test [4] it was over 100 nM; in test [5], at least 5000 nM; in test [6], at least 5000 nM. Also, the IC50 in [7] is at least 50000 nM; in test [8], 500 to 5000 nM; in [9], 500 to 5000 nM.
